These results are taken from ChEMBL document CHEMBL2384983, “A cyclodextrin-capped histone deacetylase inhibitor” (Bioorg Med Chem Lett, 2013).

Usually IC50 stands for the concentration that inhibits the measured activity by half. Higher therefore signals a need for much substance.

One assay addresses T1, Histone deacetylase 8 (Homo sapiens, UniProt Q9BY41).
T1 sequence (Q9BY41 whole entry): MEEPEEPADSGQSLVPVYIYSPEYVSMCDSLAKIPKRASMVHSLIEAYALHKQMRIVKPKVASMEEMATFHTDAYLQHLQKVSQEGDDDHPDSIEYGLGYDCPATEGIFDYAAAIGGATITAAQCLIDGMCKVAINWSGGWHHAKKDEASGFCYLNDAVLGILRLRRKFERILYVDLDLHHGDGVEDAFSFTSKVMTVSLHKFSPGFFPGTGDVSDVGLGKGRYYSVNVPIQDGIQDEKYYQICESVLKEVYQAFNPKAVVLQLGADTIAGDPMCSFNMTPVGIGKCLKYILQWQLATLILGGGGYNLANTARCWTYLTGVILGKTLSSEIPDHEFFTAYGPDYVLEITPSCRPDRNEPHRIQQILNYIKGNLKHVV
Nature of the assay: Inhibition of HDAC8 (unknown origin).

The target of the next assay is Histone deacetylase 1 (Homo sapiens, UniProt Q13547). Put plainly: Inhibition of HDAC1 (unknown origin).
Assay [1] deals with T2, Protein deacetylase HDAC6 (Homo sapiens, UniProt Q9UBN7).
T2 sequence (Q9UBN7 whole entry): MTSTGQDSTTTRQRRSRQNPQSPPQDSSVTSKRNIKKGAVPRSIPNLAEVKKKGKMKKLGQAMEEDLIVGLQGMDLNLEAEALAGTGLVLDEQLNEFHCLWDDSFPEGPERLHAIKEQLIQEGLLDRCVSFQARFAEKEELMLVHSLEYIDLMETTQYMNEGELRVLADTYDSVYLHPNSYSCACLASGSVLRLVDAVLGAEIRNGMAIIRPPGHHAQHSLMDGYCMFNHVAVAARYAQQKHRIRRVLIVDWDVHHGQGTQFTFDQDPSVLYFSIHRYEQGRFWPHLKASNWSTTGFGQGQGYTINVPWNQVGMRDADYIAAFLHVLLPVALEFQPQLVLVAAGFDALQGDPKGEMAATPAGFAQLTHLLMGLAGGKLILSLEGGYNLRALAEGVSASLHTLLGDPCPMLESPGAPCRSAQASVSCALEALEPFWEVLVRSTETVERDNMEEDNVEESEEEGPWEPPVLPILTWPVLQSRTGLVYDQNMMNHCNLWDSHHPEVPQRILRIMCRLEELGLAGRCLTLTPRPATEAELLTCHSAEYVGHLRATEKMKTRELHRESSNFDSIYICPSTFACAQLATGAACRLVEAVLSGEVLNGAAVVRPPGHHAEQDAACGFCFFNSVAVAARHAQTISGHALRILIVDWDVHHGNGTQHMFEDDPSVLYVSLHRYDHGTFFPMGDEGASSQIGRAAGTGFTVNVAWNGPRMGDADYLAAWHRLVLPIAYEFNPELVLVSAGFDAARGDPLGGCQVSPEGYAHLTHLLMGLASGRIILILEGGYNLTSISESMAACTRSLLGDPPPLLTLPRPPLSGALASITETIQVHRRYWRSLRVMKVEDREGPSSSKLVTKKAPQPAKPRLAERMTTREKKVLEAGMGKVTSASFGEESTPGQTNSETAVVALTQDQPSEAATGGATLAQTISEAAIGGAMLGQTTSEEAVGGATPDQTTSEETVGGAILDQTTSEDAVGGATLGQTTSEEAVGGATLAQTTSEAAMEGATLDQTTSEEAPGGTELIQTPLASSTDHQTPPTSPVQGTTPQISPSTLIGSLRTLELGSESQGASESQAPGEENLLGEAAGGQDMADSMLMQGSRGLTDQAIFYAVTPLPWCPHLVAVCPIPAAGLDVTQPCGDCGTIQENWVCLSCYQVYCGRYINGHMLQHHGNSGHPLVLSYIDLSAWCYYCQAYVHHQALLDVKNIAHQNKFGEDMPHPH
Put plainly: Inhibition of HDAC6 (unknown origin).

For a further assay, the target named is Histone deacetylase 3 (Homo sapiens, UniProt O15379). Nature of the assay: Inhibition of HDAC3 (unknown origin).
The target of the next assay is Histone deacetylase 2 (Homo sapiens, UniProt Q92769). Nature of the assay: Inhibition of HDAC2 (unknown origin).
Sequence of Histone deacetylase 2 (Q92769 whole entry): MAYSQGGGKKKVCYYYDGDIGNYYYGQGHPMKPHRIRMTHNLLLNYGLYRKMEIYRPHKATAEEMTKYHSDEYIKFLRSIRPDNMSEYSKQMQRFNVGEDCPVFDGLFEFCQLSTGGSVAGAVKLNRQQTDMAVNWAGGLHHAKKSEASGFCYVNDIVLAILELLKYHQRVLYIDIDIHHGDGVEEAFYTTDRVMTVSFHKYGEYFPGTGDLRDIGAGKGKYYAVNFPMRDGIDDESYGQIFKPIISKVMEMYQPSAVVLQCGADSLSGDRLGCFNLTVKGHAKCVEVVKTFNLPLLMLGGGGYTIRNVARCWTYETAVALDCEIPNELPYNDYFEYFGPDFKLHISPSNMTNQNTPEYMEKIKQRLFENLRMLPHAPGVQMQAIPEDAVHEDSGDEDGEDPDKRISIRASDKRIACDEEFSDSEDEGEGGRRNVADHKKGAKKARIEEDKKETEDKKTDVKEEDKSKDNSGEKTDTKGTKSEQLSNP

Sequence of Histone deacetylase 3 (O15379 whole entry): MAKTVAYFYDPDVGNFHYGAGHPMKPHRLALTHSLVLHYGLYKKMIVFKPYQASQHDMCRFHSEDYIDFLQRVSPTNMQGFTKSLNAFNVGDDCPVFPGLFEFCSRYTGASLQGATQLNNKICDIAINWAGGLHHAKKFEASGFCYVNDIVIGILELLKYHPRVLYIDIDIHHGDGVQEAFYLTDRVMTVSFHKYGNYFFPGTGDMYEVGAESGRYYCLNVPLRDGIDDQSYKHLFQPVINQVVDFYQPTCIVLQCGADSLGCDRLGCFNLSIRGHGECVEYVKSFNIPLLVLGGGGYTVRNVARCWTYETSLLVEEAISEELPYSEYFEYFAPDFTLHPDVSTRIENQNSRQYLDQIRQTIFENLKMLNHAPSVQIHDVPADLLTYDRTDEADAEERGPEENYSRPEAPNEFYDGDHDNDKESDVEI
Sequence of Histone deacetylase 1 (Q13547 whole entry): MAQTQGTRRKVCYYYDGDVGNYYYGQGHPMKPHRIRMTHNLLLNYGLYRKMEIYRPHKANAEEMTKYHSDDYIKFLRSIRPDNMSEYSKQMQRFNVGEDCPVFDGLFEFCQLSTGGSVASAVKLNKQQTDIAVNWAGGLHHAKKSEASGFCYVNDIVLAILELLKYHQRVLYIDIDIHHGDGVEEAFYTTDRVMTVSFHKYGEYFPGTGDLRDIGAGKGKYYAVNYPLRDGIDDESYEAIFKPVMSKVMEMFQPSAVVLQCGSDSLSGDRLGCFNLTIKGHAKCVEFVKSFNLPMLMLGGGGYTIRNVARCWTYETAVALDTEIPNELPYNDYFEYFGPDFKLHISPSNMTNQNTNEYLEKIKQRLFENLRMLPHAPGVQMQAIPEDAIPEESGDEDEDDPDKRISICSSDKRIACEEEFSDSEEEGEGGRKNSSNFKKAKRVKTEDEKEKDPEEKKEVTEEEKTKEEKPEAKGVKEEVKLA

With `O=C(CCCCCCC(=O)NC[C@H]1O[C@@H]2O[C@H]3[C@H](O)[C@@H](O)[C@@H](O[C@H]4[C@H](O)[C@@H](O)[C@@H](O[C@H]5[C@H](O)[C@@H](O)[C@@H](O[C@H]6[C@H](O)[C@@H](O)[C@@H](O[C@H]7[C@H](O)[C@@H](O)[C@@H](O[C@H]8[C@H](O)[C@@H](O)[C@@H](O[C@H]1[C@H](O)[C@H]2O)O[C@@H]8CO)O[C@@H]7CO)O[C@@H]6CO)O[C@@H]5CO)O[C@@H]4CO)O[C@@H]3CO)NO`, the IC50 at Histone deacetylase 8 came out at 6000 nM; on Histone deacetylase 1, 630 nM; in assay [1], 120 nM; against Histone deacetylase 3 it was 1600 nM; against Histone deacetylase 2 it was 1200 nM.
